Drawing on ChEMBL document CHEMBL1123591, “Synthetic analogues of tetrahydrobiopterin with cofactor activity for aromatic amino acid hydroxylases” (1987), this text covers Relative velocity for 9 compounds.

One experiment relates to dihydropteridine reductase. Put plainly: Tested in isolated enzyme assay for its cofactor actidihydropteridine reductaseity against dihydropteridine reductase expressed as relatidihydropteridine reductasee dihydropteridine reductaseelocity.
Consider `CCCCOCC1CNc2nc(N)nc(O)c2N1.Cl.Cl` (centres undefined), for which the Relative velocity is 283%.

The subject of another experiment is dihydropteridine reductase. The experiment is described as follows: Tested in isolated enzyme assay for its cofactor activity against dihydropteridine reductase expressed as relative velocity.
For `CC(O)C(O)C1CNc2nc(N)nc(O)c2N1.Cl.Cl` (centres undefined), the Relative velocity is 100%. `CC(C)(C)OCC1CNc2nc(N)nc(O)c2N1.Cl.Cl` (centres undefined) returned a Relative velocity of 222%. Turning to `CCCOCC1CNc2nc(N)nc(O)c2N1.Cl.Cl` (centres undefined), the Relative velocity turned out to be 212%. As to `COCC1CNc2nc(N)nc(O)c2N1.Cl.Cl` (centres undefined), the Relative velocity worked out at 421%.

The compound `CC(C)OCC1CNc2nc(N)nc(O)c2N1.Cl.Cl` (centres undefined) registered a Relative velocity of 277%. Still for that read-out and setting: the figure for `CCOCC1CNc2nc(N)nc(O)c2N1.Cl.Cl` (centres undefined) is 419%; for `CC1CNc2nc(N)[nH]c(=O)c2N1.Cl.Cl` (centres undefined) it is 216%; for `CC1(C)CNc2nc(N)nc(O)c2N1` it is 239%.
